Converted amounts (≈) assume the structure as drawn. Where two headings read alike, the source gives them in different places.
Assays:
[1] = system: porcine kidney (PK-15) cells; assay: Somatic cell toxicity assay (resazurin reduction), PK-15; format: cell-based; settings: Sus scrofa; PK-15 cells, resazurin; read-out: IC50, cell proliferation
Method: (§1) Viability assays, based on resazurin-resorufin transformation, represent excellent correlation to generally used reference assays, such as formazan- and tritiated thymidine based methods. In our experiments, proliferating murine neuroblastoma (MNA), feline fetus lung (FFL) and porcine kidney (PK-15) cells were treated with OPA. […] These values were remarkably less than the concentrations causing sperm toxicity and motility inhibition.
(§2) Cytotoxicity against somatic cells was tested with feline fetus lung cells (FFL) cultivated as described by Andersson et al. and murine neuroblastoma cells (MNA) as described by Kulonen et al. as well as porcine kidney tubular epithelial cell line (PK-15), cultured as reported earlier. All somatic cell lines were maintained in an atmosphere of 95% air, 5% CO2 and 95% relative humidity at 37 °C on RPMI 1640 (complete medium) in a cell culture cabinet (Heracell 150i; Thermo Fisher Scientific, Vantaa, Finland). The detached cells were seeded onto 96 well microtiter plates and exposed to the purified OPA, the final concentration of which ranged from 48.8 ng mL^−1 to 25 μg mL^−1 containing 10 levels in methanol. […] Then, the plates were analyzed by a microtiter plate reader (Fluoroskan Ascent, Thermo Scientific, Vantaa, Finland) at the excitation and emission wavelengths of 544 nm and 590 nm, respectively. […]

[2] = as above; format: cell-based, porcine; settings: pig, PK-15 cells (porcine kidney tubular epithelial cell line); read-out: Toxic endpoint EC50, Cytotoxicity, PK-15 cells
Method: as §1, §2

[3] = system: murine neuroblastoma (MNA) cells; assay: Somatic cell toxicity assay (resazurin reduction), MNA; format: cell-based; settings: Mus musculus, read-out: IC50, cell proliferation
Method: as §1, §2

boar spermatozoa = assay: Cell membrane permeability assay on motile sperm cells (PI staining); format: cell-based; settings: for EC50: Spermatozoa
Method: (§3) To test the effect of OPA exposure on sperm cells in physiological conditions (swimming at 37 °C) the plasma membrane disruption on motile sperm cells was measured with the viability PI stain, where the loss of plasma membrane integrity was detected as appearance of red color stained nuclei in the damaged cells. In this assay, sperm cells were exposed to OPA at 37 °C and motility of the exposed sperm cells was induced and maintained for 2 h.
(§4) Cell membrane permeability assay on motile sperm cells was inspected by staining with PI (Molecular Probes, Eugene, OR, USA) in sperm cells induced to swim by shaking at 37 °C. One hundred and fifty μL aliquots of commercial extended boar semen with a density of 27 × 10^6 sperms mL^−1 were pipetted into microtiter plate wells and serially diluted methanolic solution of OPA were added in the concentration range of 200 ng mL^−1 to 4 μg mL^−1 including 6 levels and an additional methanol blank, and pre-incubated for 2 h on orbital shaker (Innova 5000 new Brunswick Scientific, Enfield, CT, USA) (160 rpm) at 37 °C. Four parallel measurements were done for each dilution. One ml PI solution (1 mg mL^−1 in Dulbeco’s phosphate buffered saline) was mixed with 3 mL of […] Dulbeco’s phosphate buffered saline. One hundred and fifty μL of this stain mixture was added to 150 μL of exposed boar semen. This suspension was incubated for 15 min at 37 °C in dark and measured using a microplate reader (Fluoroskan Ascent, Thermo Scientific, Vantaa, Finland) at excitation and emission wavelengths of 544 nm and 600 nm, respectively. For observing plasma membrane damage by PI staining frozen-thawed semen was used as a positive control (for mortality of 100%) representing the maximal fluorescence emitted by the cells permeable to PI and Dulbeco’s phosphate buffered saline was applied as background control (blank). Loss of viability in the sample was calculated as described in Alm et al.. The frozen sample represented 100% loss of viability. The assay was calibrated with triclosan (Sigma Chemical Co., St. Louis, MO, USA), in 5 parallel tests, the EC50 was 2 μg mL^−1 (SD ± 0.6). Cell membrane permeability assay on static sperm cells at room temperature was carried out by viability staining with PI and calcein-AM (Molecular Probes, Eugene, OR, USA) according to Hoornstra et al. in same concentration range and levels described above.

[4] = as above; format: cell-based, boar; settings: boar (pig), motile boar spermatozoa (commercial extended boar semen); at 800 ng mL^−1 to 1600 ng mL^−1, 37 °C, 2 h
Method: as §3, §4

Q: For `CC(C)=C[C@H]1C[C@H](C)[C@]2(CC[C@]3(C)C[C@H]4[C@H](C(=O)C[C@@]4(C)O)/C(C=O)=C\C[C@H]32)O1` [OPA, ophiobolin A], which IC50 [1] is on record?
A: The IC50 was 0.0488 to 0.0976 µg/mL (≈ 0.122 to 0.244 µM).

Q: And the EC50 at 3 days [2]?
A: Its EC50 at 3 days is 0.1 µg/mL (≈ 0.25 µM).

Q: What about the IC50 [3] of the same compound?
A: The IC50 was under 0.0488 µg/mL.

Q: And the EC50 (boar spermatozoa; 2 h, read-out: Toxic endpoint EC50, Permeability to PI on motile cells)?
A: The EC50 was 1.6 µg/mL (≈ 3.99 µM).

Q: What about the EC50 (boar spermatozoa; 37 °C, motility maintained for 2 h, read-out: EC50, loss of plasma membrane integrity (PI) on motile sperm cells) of the same compound?
A: Its EC50 is 0.8 to 1.6 µg/mL (≈ 2 to 3.99 µM).

Q: What about the “Concentration lethal to the sperm cells (disrupting the plasma membrane)” value (boar spermatozoa; motile at 37 °C, after 2 h) of the same compound?
A: The value was “below 2000 ng/mL”.

Q: And the “Concentration inducing lethal damage (loss of plasma membrane integrity)” value (boar spermatozoa; swimming at 37 °C, short period)?
A: Its value is under 1 µg/mL.

Q: And the viability at 2 h [4]?
A: Its viability at 2 h is 38 to 73%.
